# What was measured:
# [1] = system: Smn protein in SMA patient fibroblast cells (GM03813); assay: Smn protein assay in cultured cells (SMN HTRF); assay type: cell-based, human; settings: SMA patient fibroblast cells, 48 hours; for maximum fold (Fold) increase of Smn protein: 7-point concentration data, fold relative to vehicle control; for EC1.5x for Smn protein expression: 7-point concentration curve, SMN HTRF, concentration producing 1.5 times Smn protein vs DMSO vehicle control
# Summary of the method: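 Patient-derived SMA fibroblasts are plated, given compound for 48 h, then lysed in RIPA buffer with protease inhibitors. Lysate Smn is detected by an anti-SMN d2/kryptate HTRF pair incubated overnight. The normalized ΔF is divided by the vehicle ΔF to give fold change, from which EC1.5× and maximum fold are taken.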
# [2] = system: SMN2 minigene mRNA (SMN2-A minigene) in HEK293H cells; assay: SMN2 minigene mRNA splicing RT-qPCR assay in cultured cells; assay type: cell-based, human; settings: Homo sapiens, HEK293-H; concentration increasing full length SMN2 mRNA 1.5-fold relative to vehicle-treated cells; HEK293H cells with SMN2-A minigene, 24 hours, 7-point concentration data; read-out: EC1.5x for production of full length SMN2 mRNA
# Summary of the method: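 Cells are seeded, left to attach 4-6 h, then dosed with test compound across seven concentrations and incubated 24 h. Lysates undergo RT-qPCR with primers/probe specific to the exon 7-containing minigene transcript, co-amplified with GAPDH. Fold change over vehicle is calculated, and EC1.5× marks the 1.5-fold point.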
SMILES,melting point [°C],maximum fold (Fold) increase of Smn protein [1],EC (1.5-fold increase) [2] [µM],EC1.5x for Smn protein expression [1]
"Cc1cn2cc(-c3cc(=O)n4cc(N5C[C@@H](C)N[C@@H](C)C5)ccc4n3)ccc2n1 [Compound 117, 7-[(3R,5S)-3,5-dimethylpiperazin-1-yl]-2-(2-methylimidazo[1,2-a]pyridin-6-yl)-4H-pyrido[1,2-a]pyrimidin-4-one]",181 to 186,**** (a fold increase between >1.5 and ≤1.65 is indicated by four stars (****)),< 0.1,**** (an EC1.5x≤0.3 μM is indicated by four stars (****))
"Cc1cn2cc(-c3cc(=O)n4cc(N5CCNCC5)ccc4n3)nc2c(C)n1 [Compound 118, 2-(6,8-dimethylimidazo[1,2-a]pyrazin-2-yl)-7-(piperazin-1-yl)-4H-pyrido[1,2-a]pyrimidin-4-one]",189 to 192,***** (a fold increase >1.65 is indicated by five stars (*****)),0.1 to 0.3,*** (an EC1.5× between >0.3 μM and ≤1 μM is indicated by three stars (***))
"Cc1cn2cc(-c3cc(=O)n4cc(N5CCN[C@@H](C)C5)ccc4n3)nc2c(C)n1 [Compound 119, 2-(6,8-dimethylimidazo[1,2-a]pyrazin-2-yl)-7-[(3S)-3-methylpiperazin-1-yl]-4H-pyrido[1,2-a]pyrimidin-4-one]",202 to 208,***** (a fold increase >1.65 is indicated by five stars (*****)),0.1 to 0.3,*** (an EC1.5× between >0.3 μM and ≤1 μM is indicated by three stars (***))
"Cc1cn2nc(-c3cc(=O)n4cc(N5CCN[C@@H](C)C5)ccc4n3)cc2c(C)n1 [Compound 121, 2-(4,6-dimethylpyrazolo[1,5-a]pyrazin-2-yl)-7-[(3S)-3-methylpiperazin-1-yl]-4H-pyrido[1,2-a]pyrimidin-4-one]",192 to 194,***** (a fold increase >1.65 is indicated by five stars (*****)),< 0.1,**** (an EC1.5x≤0.3 μM is indicated by four stars (****))
"COc1ccc(-c2cc(=O)n3cc(-c4ccnc(C)c4)ccc3n2)cc1OC [Compound 122, 2-(3,4-dimethoxyphenyl)-7-(2-methylpyridin-4-yl)-4H-pyrido[1,2-a]pyrimidin-4-one]",197 to 200,*** (a fold increase between >1.35 and ≤1.5 is indicated by three stars (***)),1 to 3,–
"O=c1cc(-c2ccc3nc(C(F)(F)F)cn3c2)nc2ccc(N3CCNCC3)cn12 [Compound 123, 7-(piperazin-1-yl)-2-[2-(trifluoromethyl)imidazo[1,2-a]pyridin-6-yl]-4H-pyrido[1,2-a]pyrimidin-4-one]",250 to 255,* (A maximum fold increase of ≤1.2 is indicated by one star (*)),1 to 3,–
"COc1ccc(-c2cc(=O)n3cc(N4C[C@H]5CNC[C@H]5C4)ccc3n2)cc1OC [Compound 126, 2-(3,4-dimethoxyphenyl)-7-[(3aR,6aS)-hexahydropyrrolo[3,4-c]pyrrol-2(1H)-yl]-4H-pyrido[1,2-a]pyrimidin-4-one]",286 to 290,** (a fold increase between >1.2 and ≤1.35 is indicated by two stars (**)),0.1 to 0.3,–
"C[C@@H]1CN(c2ccc3nc(-c4cnc5c(ccn5C)c4)cc(=O)n3c2)C[C@H](C)N1 [Compound 130, 7-[(3R,5S)-3,5-dimethylpiperazin-1-yl]-2-(1-methyl-1H-pyrrolo[2,3-b]pyridin-5-yl)-4H-pyrido[1,2-a]pyrimidin-4-one]",265 to 268,*** (a fold increase between >1.35 and ≤1.5 is indicated by three stars (***)),1 to 3,* (An EC1.5× for Smn protein expression between >3 μM and ≤10 μM is indicated by one star (*))
"Cc1nc2ccc(-c3cc(=O)n4cc(N5CCN[C@@H](C)C5)ccc4n3)cc2o1 [Compound 134, 2-(2-methyl-1,3-benzoxazol-6-yl)-7-[(3S)-3-methylpiperazin-1-yl]-4H-pyrido[1,2-a]pyrimidin-4-one]",191 to 193,***** (a fold increase >1.65 is indicated by five stars (*****)),< 0.1,**** (an EC1.5x≤0.3 μM is indicated by four stars (****))
"Cc1nc2cc(-c3cc(=O)n4cc(N5CCN[C@@H](C)C5)ccc4n3)ccc2s1 [Compound 135, 2-(2-methyl-1,3-benzothiazol-5-yl)-7-[(3S)-3-methylpiperazin-1-yl]-4H-pyrido[1,2-a]pyrimidin-4-one]",174 to 180,**** (a fold increase between >1.5 and ≤1.65 is indicated by four stars (****)),< 0.1,**** (an EC1.5x≤0.3 μM is indicated by four stars (****))

# Second part, led by results:
melting point [°C],SMILES,maximum fold (Fold) increase of Smn protein [1],EC (1.5-fold increase) [2] [µM],EC1.5x for Smn protein expression [1]
201 to 203,"COc1ccc(-c2cc(=O)n3cc(N4CCNCC4)ccc3n2)cc1Cl [Compound 110, 2-(3-chloro-4-methoxyphenyl)-7-(piperazin-1-yl)-4H-pyrido[1,2-a]pyrimidin-4-one]",*** (a fold increase between >1.35 and ≤1.5 is indicated by three stars (***)),0.1 to 0.3,–
187 to 189,"COc1ccc(-c2cc(=O)n3cc(N4CCN[C@@H](C)C4)ccc3n2)cc1Cl [Compound 111, 2-(3-chloro-4-methoxyphenyl)-7-[(3S)-3-methylpiperazin-1-yl]-4H-pyrido[1,2-a]pyrimidin-4-one]",*** (a fold increase between >1.35 and ≤1.5 is indicated by three stars (***)),0.1 to 0.3,–
194 to 196,"CCOc1cc(-c2cc(=O)n3cc(N4CCNCC4)ccc3n2)ccc1OC [Compound 112, 2-(3-ethoxy-4-methoxyphenyl)-7-(piperazin-1-yl)-4H-pyrido[1,2-a]pyrimidin-4-one]",*** (a fold increase between >1.35 and ≤1.5 is indicated by three stars (***)),0.3 to 1,–
159 to 162,"CCOc1cc(-c2cc(=O)n3cc(N4CCN[C@@H](C)C4)ccc3n2)ccc1OC [Compound 113, 2-(3-ethoxy-4-methoxyphenyl)-7-[(3S)-3-methylpiperazin-1-yl]-4H-pyrido[1,2-a]pyrimidin-4-one]",*** (a fold increase between >1.35 and ≤1.5 is indicated by three stars (***)),1 to 3,–
228 to 232,"CCc1cn2cc(-c3cc(=O)n4cc(N5CCNCC5)ccc4n3)ccc2n1 [Compound 124, 2-(2-ethylimidazo[1,2-a]pyridin-6-yl)-7-(piperazin-1-yl)-4H-pyrido[1,2-a]pyrimidin-4-one]",** (a fold increase between >1.2 and ≤1.35 is indicated by two stars (**)),0.3 to 1,–
236 to 240,"Cc1nc2ccc(-c3cc(=O)n4cc(N5CCNCC5)ccc4n3)cn2c1C [Compound 125, 2-(2,3-dimethylimidazo[1,2-a]pyridin-6-yl)-7-(piperazin-1-yl)-4H-pyrido[1,2-a]pyrimidin-4-one]",*** (a fold increase between >1.35 and ≤1.5 is indicated by three stars (***)),0.3 to 1,–
182 to 185,"COc1ccc(-c2cc(=O)n3cc(N4CCC(N)CC4)ccc3n2)cc1OC [Compound 127, 7-(4-aminopiperidin-1-yl)-2-(3,4-dimethoxyphenyl)-4H-pyrido[1,2-a]pyrimidin-4-one]",*** (a fold increase between >1.35 and ≤1.5 is indicated by three stars (***)),0.3 to 1,* (An EC1.5× for Smn protein expression between >3 μM and ≤10 μM is indicated by one star (*))
230 to 233,"Cn1ccc2cc(-c3cc(=O)n4cc(N5CCNCC5)ccc4n3)cnc21 [Compound 129, 2-(1-methyl-1H-pyrrolo[2,3-b]pyridin-5-yl)-7-(piperazin-1-yl)-4H-pyrido[1,2-a]pyrimidin-4-one]",*** (a fold increase between >1.35 and ≤1.5 is indicated by three stars (***)),0.3 to 1,* (An EC1.5× for Smn protein expression between >3 μM and ≤10 μM is indicated by one star (*))
219 to 222,"Cc1nc2ccc(-c3cc(=O)n4cc(N5CCNCC5)ccc4n3)cc2o1 [Compound 133, 2-(2-methyl-1,3-benzoxazol-6-yl)-7-(piperazin-1-yl)-4H-pyrido[1,2-a]pyrimidin-4-one]",**** (a fold increase between >1.5 and ≤1.65 is indicated by four stars (****)),< 0.1,**** (an EC1.5x≤0.3 μM is indicated by four stars (****))
228 to 230,"Cc1nc2cc(-c3cc(=O)n4cc(N5CCNCC5)ccc4n3)ccc2s1 [Compound 136, 2-(2-methyl-1,3-benzothiazol-5-yl)-7-(piperazin-1-yl)-4H-pyrido[1,2-a]pyrimidin-4-one]",***** (a fold increase >1.65 is indicated by five stars (*****)),< 0.1,**** (an EC1.5x≤0.3 μM is indicated by four stars (****))

# Source: patent publication US11753407B2, “Compounds for treating spinal muscular atrophy” (PTC Therapeutics, Inc., priority 2012, dated 2023)
